Measured values from patent publication US20250108038A1 (priority 2023, published 2025).

Key:
[1] = Plasma protein binding by equilibrium dialysis; type: in vitro ADME, mouse; conditions: for % Recovery / % Unbound: mouse plasma
Procedure: Samples of spiked plasma and blank buffer (Dulbecco's phosphate-buffered saline, DPBS) and spiked brain homogenate and blank DPBS added to opposing sides of a dialysis membrane were collected from triplicate equilibrium dialysis chambers prior to (t=0) and following 1, 2, 4 and 6 hours of incubation at 37° C. […] The LC-MS/MS method(s) for analytes (Compound I-19, Compound A and Compound B) was cross-qualified for the analysis of the DPBS samples.
A secondary stock solution of 200 μM (74.2 ug/mL) will be prepared in DMSO. This secondary stock solution will then be diluted 100-fold to 2 μM ([…]) with male CD-1 mouse plasma and brain homogenate (1:2 v/v brain:Dulbecco's phosphate buffered saline, pH 7-7.2) or buffer (DPBS).
To 2.97 mL aliquots of thawed mouse plasma or brain homogenate warmed to 37° C., 30 ul aliquots of the secondary stock solution of the test compound will be added for final concentrations of 2 μM (0.742 ug/mL). An appropriate volume of warmed buffer (DPBS) will also be spiked with the test compound at a concentration of 2 μM ([…]). Triplicate aliquots (50 μL) of each spiked plasma, brain homogenate and buffer solution will be collected prior to dialysis into labeled 1.5 mL polypropylene tubes and then stored at approximately −80° C. until bioanalysis.
Equilibrium dialysis will be performed in a 96-well Teflon dialysis unit (HTDialysis, Gales Ferry, CT). Each well of the unit consists of two chambers separated by a vertically aligned dialysis membrane (regenerated cellulose) with a molecular weight cut-off of 12-14 KDa. The equilibrium dialysis membranes will first be presoaked in deionized water for 30 min, then soaked in 20% ethanol for 20 min, followed by rinsing twice with deionized water.
The equilibrium dialysis apparatus will be assembled according to the manufacturer's directions. One chamber of each well will be immediately filled with 150 μL of blank buffer (to prevent membrane dehydration). Aliquots (150 μL) of spiked plasma, spiked brain homogenate and spiked buffer will then be added to the opposing chamber in each well. Three wells per time point per matrix will be used. The top of the plate will be sealed with an adhesive sealing film to prevent evaporation and maintain constant pH during incubation.
The dialysis apparatus will be incubated at 37° C. in an orbital shaker/incubator (Lab-Line Enviro Shaker) set at 75 rpm.
Following 1, 2, 4 and 6 hours of incubation, samples from each plasma, brain homogenate and buffer compartment will be collected and the sample volume will be documented.

[2] = physchem; conditions: kinetic from dmso stock
[3] = target: T1, CYP1A2 (Homo sapiens, UniProt P05177); assay: in vitro; conditions: both, microsomes, pH 7.4
T1 sequence (P05177 1-516): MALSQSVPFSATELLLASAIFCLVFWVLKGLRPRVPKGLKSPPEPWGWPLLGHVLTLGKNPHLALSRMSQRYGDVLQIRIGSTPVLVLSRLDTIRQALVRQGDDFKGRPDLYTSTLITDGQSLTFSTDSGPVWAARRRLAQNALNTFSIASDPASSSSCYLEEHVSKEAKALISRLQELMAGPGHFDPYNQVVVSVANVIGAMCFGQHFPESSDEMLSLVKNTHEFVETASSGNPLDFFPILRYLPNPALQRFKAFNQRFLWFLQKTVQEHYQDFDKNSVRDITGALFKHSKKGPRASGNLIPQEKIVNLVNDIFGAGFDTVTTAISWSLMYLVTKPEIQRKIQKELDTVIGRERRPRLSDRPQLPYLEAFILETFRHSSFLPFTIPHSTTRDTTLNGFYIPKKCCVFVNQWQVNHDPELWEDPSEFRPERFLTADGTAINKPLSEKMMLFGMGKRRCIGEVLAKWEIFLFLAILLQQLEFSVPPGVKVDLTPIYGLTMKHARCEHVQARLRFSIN

[4] = target: CYP2C9 (Homo sapiens, UniProt P11712); assay: in vitro; conditions: both, pH 7.4
Chain of CYP2C9 (P11712 whole entry): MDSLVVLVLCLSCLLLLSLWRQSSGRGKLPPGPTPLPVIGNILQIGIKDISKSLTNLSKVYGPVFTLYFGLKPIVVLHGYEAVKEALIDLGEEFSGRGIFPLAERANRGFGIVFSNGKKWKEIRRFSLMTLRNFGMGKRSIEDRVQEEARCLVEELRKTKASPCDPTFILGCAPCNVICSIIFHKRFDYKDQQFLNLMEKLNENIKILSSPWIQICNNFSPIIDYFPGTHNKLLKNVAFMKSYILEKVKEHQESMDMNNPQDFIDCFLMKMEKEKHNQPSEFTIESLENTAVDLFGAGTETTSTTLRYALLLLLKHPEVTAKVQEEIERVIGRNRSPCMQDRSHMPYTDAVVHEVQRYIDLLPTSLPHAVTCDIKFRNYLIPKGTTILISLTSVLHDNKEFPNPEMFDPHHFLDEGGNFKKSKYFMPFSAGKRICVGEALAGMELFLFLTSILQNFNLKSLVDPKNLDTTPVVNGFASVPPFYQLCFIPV

[5] = target: CYP2C19 (Homo sapiens, UniProt P33261); assay: in vitro; conditions: both, pH 7.4
Chain of CYP2C19 (P33261 whole entry): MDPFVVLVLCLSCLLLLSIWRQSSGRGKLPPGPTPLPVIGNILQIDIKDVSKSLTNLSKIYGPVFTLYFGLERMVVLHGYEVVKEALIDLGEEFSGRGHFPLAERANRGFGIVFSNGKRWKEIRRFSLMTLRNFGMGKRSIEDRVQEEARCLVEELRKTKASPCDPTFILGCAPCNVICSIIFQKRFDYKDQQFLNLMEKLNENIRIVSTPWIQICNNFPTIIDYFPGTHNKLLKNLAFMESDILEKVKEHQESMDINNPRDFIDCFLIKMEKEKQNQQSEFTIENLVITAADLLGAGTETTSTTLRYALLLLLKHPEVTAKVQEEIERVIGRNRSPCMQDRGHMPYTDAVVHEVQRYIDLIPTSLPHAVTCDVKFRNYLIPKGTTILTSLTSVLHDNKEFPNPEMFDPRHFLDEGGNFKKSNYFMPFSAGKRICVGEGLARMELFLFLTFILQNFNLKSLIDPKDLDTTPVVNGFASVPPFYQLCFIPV

[6] = target: CYP2D6 (Homo sapiens, UniProt P10635); assay: biochemical
Chain of CYP2D6 (P10635 whole entry): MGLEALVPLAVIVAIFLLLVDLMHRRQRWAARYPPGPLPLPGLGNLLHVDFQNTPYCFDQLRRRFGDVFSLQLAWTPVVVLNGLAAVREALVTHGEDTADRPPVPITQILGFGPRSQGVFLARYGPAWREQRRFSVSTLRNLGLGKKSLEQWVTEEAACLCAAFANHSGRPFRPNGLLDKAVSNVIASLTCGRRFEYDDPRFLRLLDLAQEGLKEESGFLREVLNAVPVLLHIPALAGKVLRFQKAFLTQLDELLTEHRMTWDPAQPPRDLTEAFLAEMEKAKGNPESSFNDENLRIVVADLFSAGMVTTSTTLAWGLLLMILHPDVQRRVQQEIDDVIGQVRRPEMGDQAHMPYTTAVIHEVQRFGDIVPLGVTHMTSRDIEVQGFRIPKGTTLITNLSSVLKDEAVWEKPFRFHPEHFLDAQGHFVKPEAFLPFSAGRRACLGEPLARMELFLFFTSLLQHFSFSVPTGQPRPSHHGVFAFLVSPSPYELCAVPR

[7] = dialysis time 1 h, 2 μM, 37° C.
[8] = dialysis time 2 h, 2 μM, 37° C.
[9] = dialysis time 4 h, 2 μM, 37° C.
[10] = dialysis time 6 h, 2 μM, 37° C.

Compound	% unbound in plasma ([1]; 2 μM, 6 hours of dialysis, 37° C.) [%]	fraction unbound to plasma ([1]; 2 μM, equilibrium dialysis)	% recovery, plasma ([1]; 6 hours of dialysis) [%]	% Recovery [1, 7] [%]	% Unbound [1, 7] [%]	% Recovery [1, 8] [%]	% Unbound [1, 8] [%]	% Recovery [1, 9] [%]	% Unbound [1, 9] [%]	% Recovery [1, 10] [%]	% Unbound [1, 10] [%]	solubility kinetic ([2]; 32 °C, pH 7.4, aqueous buffer, transport buffer with sucrose for BCRP and MDR1 (pH 7.4, 32° C.)) [µM]	solubility kinetic ([2]; 37 °C, pH 7.4, aqueous buffer, HBSS (pH 7.4) uptake assay buffer) [µM]	solubility kinetic ([2]; 37 °C, pH 7.4, aqueous buffer, transport buffer for BSEP (pH 7.4)) [µM]	solubility kinetic ([2]; 37 °C, pH 8, aqueous buffer, KH (pH 8.0) uptake assay buffer) [µM]	inhibition at 50 µM [3] [%]	inhibition at 10 µM [4] [%]	inhibition at 10 µM [5] [%]	IC50 [6] [µM]
Clc1ccc(C2(OCC3OCCO3)c3ccccc3C3=NCCN32)cc1 (stereo not shown) [Compound I-19]	3.72±0.564	0.0372	57.1±0.567	87.9 ± 3.05	1.43	80.1 ± 2.93	1.91 ± 0.158	67.6 ± 3.41	3.20 ± 0.700	57.1 ± 0.567	3.72 ± 0.564								
OC1(c2ccc(Cl)cc2)c2ccccc2C2=NCCN21 (stereo not shown) [Compound A, 5-(4-chlorophenyl)-2,3-dihydroimidazo[1,2-b]isoindol-5-ol, reference compound]												≥ 50	≥ 30	≥ 35	≥ 30	13.7	10.2	16.5	4.16
